Consider 14 molecules from US20080050819A1, “Constructs for Marker Excision Based on Dual-Function Selection Marker” (BASF Plant Science GmbH, priority 2004, published 2008).

The subject of test [1] is wild-type plants (A. thaliana). The experiment in a line: Toxicity of keto acids to wild-type plants on half strength MS agar plates. Type of test: in vivo, Arabidopsis thaliana. Particulars: for effect on growth of A. thaliana: in vivo. Here is the method:
(§1) To evaluate the toxic action of 3-methyl-2-oxopentanoate and 3-methyl-2-oxobutanoate, wild-type plants were sown on two sets of half strength MS agar plates, each containing one of the compounds in a range of concentrations (0.01-10 mM). […] For 3-methyl-2-oxobutanoate, 5 mM was required for complete inhibition. Further, several attempts were made to probe the nature of D-serine's toxicity.

Test [2] has as its system DAAO transgenic plants. The test is described as follows: Germination of DAAO transgenic plants on D-Asn (cytosolic and peroxisomal DAAO). It is filed as in vivo. The following applies: 30 mM; cytosolic and peroxisomal DAAO constructs vs wild-type.
The subject of test [3] is wild-type Arabidopsis thaliana. The experiment in a line: Growth of wild-type A. thaliana on D-amino acid media. It is filed as in vivo. The following applies: for effect on growth of wild-type plantlets: FIG. 3, half-concentrated MS medium supplemented at 3 mM (Panel A) or 30 mM (Panel B); for effect on wild-type plants: concentration not stated / various concentrations. On the procedure: FIG. 3 Effect of various D-amino acids on plant growth. • Wild type Arabidopsis thaliana plantlets were grown on half-concentrated Murashige-Skoog medium (0.5% (wt/vol) sucrose, 0.8% (wt/vol) agar) supplemented with the indicated D-amino acid at either 3 mM (Panel A) or 30 mM (Panel B).
(§2) FIG. 4 D-amino acid dose responses of dao1 transgenic and wild-type A. thaliana. • (a-d) Growth of dao1 transgenic line 3:7 (white), 10:7 (light gray), 13:4 (gray) and wild-type (black) plants, in fresh weight per plant, on media containing various concentrations of D-serine, D-alanine, D-isoleucine and D-valine in half-strength MS with 0.5% (wt/vol) sucrose and 0.8% (wt/vol) agar. Different concentration ranges were used for different D-amino acids. The plants were grown for 10 d after germination under 16 h photoperiods at 24° C.; n=10±s.e.m., except for plants grown on D-isoleucine, where smaller Petri dishes were used, (n=6±s.e.m.). • (e-l) Photographs of dao1 transgenic line 10:7 (e-h) and wild-type plants (i-l), grown for 10 d on the highest concentrations of the D-amino acid shown in the respective graphs above. All pictures have the same magnification. FW, fresh weight.

The subject of test [4] is DAAO transgenic seedlings. The test is described as follows: Spray application of D-amino acids on soil-grown DAAO transgenic seedlings. Particulars: 50 mM spray. It is filed as in vivo, Arabidopsis thaliana. On the procedure:
(§3) FIG. 5: Selection of primary transformants with the DAAO marker. • (a-c) DAAO T1 seedlings on media containing 3 mM D-alanine (a), 3 mM D-serine (b) and 50 μg ml-1 kanamycin (c). Seeds were surface-sterilized and sown on half-strength MS plates with 0.5% (wt/vol) sucrose, 0.8% (wt/vol) agar and the respective selective compound, then grown for 5 d after germination under 16 h photoperiods at 24° C. • (d) DAAO transgenic plants grown on soil photographed after selection by spraying with (1) D-alanine and (2) D-serine, and wild-type plants sprayed with (3) D-alanine and (4) D-serine. Eight seeds per plot and treatment were sown on soil, and grown for 7 d after germination before applying the selective treatment, which consisted of spraying with aqueous 50 mM solutions of D-alanine or D-serine with 0.05% Tween 80 on three consecutive days.
(§4) FIG.: 11 D-amino acids are applicable by spraying procedure DAAO transgenic plants grown on soil photographed after selection by spraying with (1) D-alanine and (2) D-serine, and wild-type plants sprayed with (3) D-alanine and (4) D-serine. Eight seeds per plot and treatment were sown on soil, and grown for 7 d after germination before applying the selective treatment, which consisted of spraying with aqueous 50 mM solutions of D-alanine or D-serine with 0.05% Tween 80 on three consecutive days.

The subject of test [5] is wild-type Arabidopsis thaliana. The experiment in a line: Growth of wild-type A. thaliana on D-amino acid media. Type of test: in vivo. The following applies: 30 mM, FIG. 2.
Test [6] relates to wild-type seedlings. The test is described as follows: Spray application of D-amino acids on soil-grown wild-type seedlings. Particulars: one-week-old seedlings, 50 mM, sprayed on three consecutive days. Type of test: in vivo, Arabidopsis thaliana. On the procedure:
as §3, §4

Test [7] has as its system dao1 transgenic A. thaliana. The test is described as follows: Growth of dao1 (DAAO) transgenic A. thaliana on D-amino acid media. It is filed as in vivo, Arabidopsis thaliana. Here is the method: as §2
Therefore, plants containing the construct were tested as described above on two sets of media, one containing D-isoleucine and the other containing D-valine at various concentrations, to assess whether DAAO could also be used as a counter-selection marker. Unambiguous counter-selection selection was achieved when seeds were sown on either D-isoleucine or D-valine at concentrations greater than 10 mM (FIG. 4 c,d).

In test [8] the target is T1, DAAO (Rhodotorula toruloides, UniProt P80324).
T1 construct: expressed in transfected cells; host or cells: Arabidopsis thaliana (Col-0) dao1 transgenic line 10:7, stably transformed with pPCV702:dao1 (CaMV 35S); crude soluble protein extract
T1 sequence (P80324 25-368): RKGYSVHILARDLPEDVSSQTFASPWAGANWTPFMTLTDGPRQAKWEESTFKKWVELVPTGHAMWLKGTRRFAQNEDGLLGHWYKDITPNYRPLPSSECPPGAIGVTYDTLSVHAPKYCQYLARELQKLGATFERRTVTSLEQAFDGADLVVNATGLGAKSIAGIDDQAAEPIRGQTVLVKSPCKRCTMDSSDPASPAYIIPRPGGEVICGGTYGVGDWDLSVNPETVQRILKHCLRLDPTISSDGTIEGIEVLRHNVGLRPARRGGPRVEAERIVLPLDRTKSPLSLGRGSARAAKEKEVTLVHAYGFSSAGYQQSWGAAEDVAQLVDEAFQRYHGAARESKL
The test is described as follows: DAAO incubation of cell-free plant extracts, keto acid production by HPLC. It is filed as biochemical, Rhodotorula gracilis. The following applies: cell-free extracts from dao1 transgenic line 10:7. On the procedure: Soluble proteins were extracted by shaking 0.1 g samples of plant material that had been finely pulverized in a 1.5 ml Eppendorf tube in 1 ml of 0.1 M potassium phosphate buffer, pH 8. DAAO activity was then assayed as follows. Reaction mixtures were pre-pared containing 2,120 μl of 0.1 M potassium phosphate buffer, pH 8, 80 μl of crude protein extract and 100 μl of 0.3 M D-alanine. The samples were incubated for 2 h at 30° C. The enzyme activity was then assessed, by measuring the increase in absorbance at 220 nm (E=1.090 M^−1 cm^−1) associated with the conversion of D-alanine to pyruvate, after transferring the test tubes to boiling water for 10 min to stop the reaction. In control reactions, D-alanine was added immediately before boiling. One unit of DAAO activity is defined as the turnover of one micromole of substrate per minute, and activity was expressed per gram plant biomass (fresh weight). The breakdown of D-isoleucine and D-valine in DAAO incubations, and the associated production of 3-methyl-2-oxopentanoate and 3-methyl-2-oxobutanoate, were analyzed by high-performance liquid chromatography. In other respects the reactions were carried out as described above.

The test system of test [9] is poplar, tobacco, barley, maize, tomato and spruce. The experiment in a line: Susceptibility of other plant species to D-serine. Type of test: in vivo. The following applies: concentrations similar to those toxic for A. thaliana; FIG. 6+7.
The subject of test [10] is T1 seeds of transgenic Arabidopsis plants. The test is described as follows: Selection of DAAO (35S:dao1 / pNos:nptII) T1 seeds on selective media. It is filed as in vivo, Arabidopsis thaliana. Particulars: FIG. 4a. The source says:
Flowering A. thaliana plants were then transformed by the floral dip method (Clough S J & Bent A F (1998) Plant J. 16, 735-743 (1998) with the transgenic Agrobacterium tumefaciens strain carrying the vector described above by dipping for 10-20 seconds into the Agrobacterium solution. Afterwards the plants were kept in the greenhouse until seeds could be harvested. Transgenic seeds were selected by plating surface sterilized seeds on growth medium A (4.4 g/L MS salts [Sigma-Aldrich], 0.5 g/L MES [Duchefa]; 8 g/L Plant Agar [Duchefa]) supplemented with 50 mg/L kanamycin for plants carrying the nptII resistance marker, or 0.3 to 30 mM D-amino acids (as described below) for plants comprising the dual-function marker of the invention. Surviving plants were transferred to soil and grown in the greenhouse.
T1 seeds of transgenic Arabidopsis plants were surface-sterilized and sown in Petri plates that were sealed with gas-permeable tape. The growth medium was half strength MS19 with 0.5% (wt/vol) sucrose and 0.8% (wt/vol) agar, plus 3 mM D-alanine, 3 mM D-serine or 50 μg/ml kanamycin as the selective agent. […] To evaluate the selection efficiency on different substrates, 2,074, 1,914 and 1,810 T1 seeds were sown on D-alanine-, D-serine- and kanamycin-selective plates, respectively, and the number of surviving seedlings was counted (44, 32 and 43, respectively). […]

Test [11] deals with wildtype A. thaliana. The test is described as follows: Attempted rescue of wild-type A. thaliana grown on lethal D-serine with potential inhibitors of D-serine toxicity. It is filed as in vivo, Arabidopsis thaliana. Particulars: lethal concentrations of D-serine, added separately and in combinations, 0.001-50 μg ml-1. On the procedure: as §1
Setting [12] is: wild-type plants, half strength MS agar, tested range 0.01-10 mM.
Setting [13] is: concentration not stated / various concentrations.

Entries after “also recorded” stand apart in the source; their conditions may differ.

With `CC(C)C(=O)C(=O)O` [3-methyl-2-oxobutanoate], in [1], the “effect on growth of A. thaliana” value is on record as “impaired growth”. For the same molecule, the “concentration giving total (complete) growth inhibition” value in test [1] (setting [12]) is on record as 5 mM.

On to `CCC(C)C(=O)C(=O)O` (stereo not drawn) [3-methyl-2-oxopentanoate], for which, in test [1], the “effect on growth of A. thaliana” value is “impaired growth”. Also, in test [1] (setting [12]), the “concentration at which plants were slightly affected” value is on record as 0.1 mM and the “concentration giving total (complete) growth inhibition” value came to 1 mM.

`NC(=O)C[C@@H](N)C(=O)O` [D-Asn, D-asparagine]: the “inhibition of germination of DAAO transgenic plants” value in [2] is “inhibited significantly more than the wild-type”.

On to `C[C@@H](N)C(=O)O` [D-alanine], for which, in [3], the “effect on growth of wild-type plantlets” value was “severe phytotoxic effects”. Also, the “effect on wild-type plants” value in test [3] was “inhibited even at quite low concentrations; also recorded: inhibited growth”. In addition, the “response of transgenic seedlings to foliar application” value in test [4] is recorded as “resistant”. Also, the “effect on wild-type plantlets” value in test [5] is recorded as “toxic effect”. In [6], the “effect of sprayed application on wild-type seedlings” value is reported as “effectively killed”. Also, the results for the “effect on transgenic (DAAO) plants” value in [7] (30 mM) and in test [7] (setting [13]) were “no severe damage; also recorded: no negative effect” and “detoxify; also recorded: developed normally”, respectively.

In the case of `CC[C@@H](C)[C@@H](N)C(=O)O` [D-isoleucine], in test [3], the “effect on growth of wild-type plantlets” value is recorded as “no significant effects” and the “effect on wild-type plants” value is “not toxic; also recorded: minor effects; also recorded: not the wild-type plants; also recorded: no sign of toxicity”. Also, the “effect on wild-type plantlets” value in [5] was “no severe damage”. Further, in test [8], the “increase in production of the keto acid (3-methyl-2-oxopentanoate / 3-methyl-2-oxobutanoate) compared to extracts of wild-type plants” value amounted to 15 fold. Further, the “effect on transgenic (DAAO) plants” value in test [7] (30 mM) is “toxic effect”. In test [7] (setting [13]), the “effect on transgenic (DAAO) plants” value is reported as “strong negative influence; also recorded: inhibit growth; also recorded: effectively killed”.

Take `N[C@H](CO)C(=O)O` [D-serine]: in [3], the “effect on growth of wild-type plantlets” value is “severe phytotoxic effects”. Besides, the “effect on wild-type plants” value in [3] is “inhibited even at quite low concentrations; also recorded: inhibited growth”. Moreover, in test [4], the “response of transgenic seedlings to foliar application” value is listed as “resistant”. The “effect of sprayed application on wild-type seedlings” value in test [6] is on record as “effectively killed”. For the same molecule, the figures for the “effect on transgenic (DAAO) plants” value in test [7] (3 mM), in test [7] (30 mM) and in test [7] (setting [13]) were “slightly inhibited the growth”, “significant growth inhibition” and “detoxify; also recorded: developed normally”, respectively. Moreover, in test [9], the “toxicity to other plant species” value is listed as “toxic effects; also recorded: susceptible”. Also, in [10], the “concentration at which efficient selection was achieved” value was “lower than 1 mM”.

Regarding `CC(C)[C@@H](N)C(=O)O` [D-valine], the “effect on wild-type plants” value in test [3] was “not toxic; also recorded: minor effects; also recorded: not the wild-type plants; also recorded: moderately negative effect”. Besides, the “increase in production of the keto acid (3-methyl-2-oxopentanoate / 3-methyl-2-oxobutanoate) compared to extracts of wild-type plants” value in test [8] is 7 fold. For the same molecule, in test [7] (setting [13]), the “effect on transgenic (DAAO) plants” value is “strong negative influence; also recorded: inhibit growth”.

In the case of `CC[C@H](C)[C@H](N)C(=O)O` [L-isoleucine], the “effect on wild-type plants” value in test [3] was “negative effects”.

On to `N[C@@H](CO)C(=O)O` [L-serine], for which the “rescue (mitigation) of D-serine toxicity” value in test [11] is recorded as “without any success”.

`CC(C)C[C@H](N)C(=O)O` [leucine]: the “rescue (mitigation) of D-serine toxicity” value in test [11] is listed as “without any success”.

`CC(C)(CO)[C@@H](O)C(=O)NCCC(=O)O` [pantothenic acid]: the “rescue (mitigation) of D-serine toxicity” value in test [11] is reported as “could not be mitigated”.

Take `C[C@@H](O)[C@H](N)C(=O)O` [threonine]: the “rescue (mitigation) of D-serine toxicity” value in [11] is reported as “without any success”.

Take `NCCC(=O)O` [β-alanine]: the “rescue (mitigation) of D-serine toxicity” value is on record as “without any success” in test [11] and “could not be mitigated” in [11] (listed as â-alanine).

calcium-pantothenate: in test [11], the “rescue (mitigation) of D-serine toxicity” value was “without any success”.
